Experimental data reported in patent publication US20240393292A1, “ALLERGY ANTIGEN AND EPITOPE THEREOF” (HOYU CO., LTD., priority 2019, published 2024).

Test system: IgE antibodies from patients
Test: Wheat epitope mapping (2): overlapping 10-amino-acid peptide fragments shifted by one amino acid
Assay type: binding, human
Conditions: sequence without X; for Epitope sequence binding to IgE antibody, rank of the sequence (Key/Preferably/More preferably/Further preferably): serum of patient P2 (WDEIA)
Experimental: The peptides to be synthesized were shifted by one amino acid.
The library was prepared by the same procedure as described above in (A), and the presence or absence of binding of an IgE antibody present in the serum of a patient to each peptide fragment was measured by the same technique as described above. Numeric values determined from images obtained as a result of carrying out only the procedures (1) and (4) to (6) described above in the subsection titled (3) Spotting of cellulose-bound peptide solution were used as control values. The control value of each peptide was subtracted from numeric values determined from images obtained from results about the serum of patients, and the obtained value of the difference was compared with values of the peptides serving as the basis of overlapping.
Chemiluminescence intensity in images obtained by measurement was converted into a numeric value in the same manner as in (A). Numeric values determined from images obtained as a result of carrying out only the procedures (1) and (4) to (6) described above in the subsection titled (3) Spotting of cellulose-bound peptide solution (secondary antibody measurement values) were used as control values. The control value of each peptide was subtracted from numeric values determined from images obtained from results about the serum of patients. When values obtained using the sequences (SEQ ID NOs: 29, 131, 191, 281, 346, 414, 493, 562, 640, 706, 776, 899, 974, 1010, 1089, 1142, 1166, 1209, 1257, 1297, 1367, 1403, 1508, 1566, 1598, 1608, 1685, 1753, 1789, 1836, 1895, 1977, 2004, 2027, 2068, 2154, 2217, 2265, 2309, 2342, 2419, 2491, 2545, 2613, 2631, 2674, 2701, 2774, 2809 and 2830) serving as the basis of overlapping were defined as 100%, it was determined that: a peptide having a value of the difference that was less than 30% had no binding activity against IgE antibodies; a peptide having a value of the difference that was 30% or more and less than 50% had binding activity, albeit poor, against IgE antibodies; a peptide having a value of the difference that was 50% or more and less than 70% had binding activity, albeit somewhat poor, against IgE antibodies; and a peptide having a value of the difference that was 70% or more had equivalent or good binding activity against IgE antibodies and was thus a peptide had remaining binding activity against IgE antibodies.

[1] = serum of patient G7 (adult, general immediate type allergy to wheat)
[2] = serum of patient P51 (child, general immediate type allergy to wheat)

Substance: 1287 (ILPRS; REGION 1..5: note = epitope) [compound 1287]
- Epitope sequence binding to IgE antibody, rank of the sequence (serum of patient P50 (child, general immediate type allergy to wheat)): Key

Substance: 1288 (LPRS; REGION 1..4: note = epitope) [compound 1288]
- Epitope sequence binding to IgE antibody, rank of the sequence (serum of patient P52 (child, general immediate type allergy to wheat)): Key

Substance: 1291 (LPRS; REGION 1..4: note = epitope) [compound 1291]
- Epitope sequence binding to IgE antibody, rank of the sequence (serum of patient P53 (child, general immediate type allergy to wheat)): Key

Substance: 1295 (VSMILPRSD; REGION 1..9: note = epitope) [compound 1295]
- Epitope sequence binding to IgE antibody, rank of the sequence [1]: Key

Substance: 1296 (ILPRSDCKV; REGION 1..9: note = epitope) [compound 1296]
- Epitope sequence binding to IgE antibody, rank of the sequence [1]: Key

Substance: 1300 (SINVENVED; REGION 1..9: note = epitope) [compound 1300]
- Epitope sequence binding to IgE antibody, rank of the sequence (Key/Preferably/More preferably/Further preferably): Preferably

Substance: 1301 (SINVEN; REGION 1..6: note = epitope) [compound 1301]
- Epitope sequence binding to IgE antibody, rank of the sequence (Key/Preferably/More preferably/Further preferably): Key

Substance: 1303 (INVEN; REGION 1..5: note = epitope) [compound 1303]
- Epitope sequence binding to IgE antibody, rank of the sequence (serum of patient P3 (WDEIA)): Preferably

Substance: 1304 (NVEN; REGION 1..4: note = epitope) [compound 1304]
- Epitope sequence binding to IgE antibody, rank of the sequence (serum of patient P3 (WDEIA)): Key

Substance: 1305 (NRRALR; REGION 1..6: note = epitope) [compound 1305]
- Epitope sequence binding to IgE antibody, rank of the sequence (serum of patient P3 (WDEIA)): Key

Substance: 1307 (NVEN; REGION 1..4: note = epitope) [compound 1307]
- Epitope sequence binding to IgE antibody, rank of the sequence (serum of patient P8 (WDEIA)): Key

Substance: 1311 (NVEN; REGION 1..4: note = epitope) [compound 1311]
- Epitope sequence binding to IgE antibody, rank of the sequence (serum of patient P10 (WDEIA)): Key

Substance: 1313 (NVEN; REGION 1..4: note = epitope) [compound 1313]
- Epitope sequence binding to IgE antibody, rank of the sequence (serum of patient P12 (WDEIA)): Key

Substance: 1316 (VEDNRRALR; REGION 1..9: note = epitope) [compound 1316]
- Epitope sequence binding to IgE antibody, rank of the sequence (serum of patient P14 (WDEIA)): Key

Substance: 1320 (NVEN; REGION 1..4: note = epitope) [compound 1320]
- Epitope sequence binding to IgE antibody, rank of the sequence (serum of patient P17 (WDEIA)): Key

Substance: 1324 (INVEN; REGION 1..5: note = epitope) [compound 1324]
- Epitope sequence binding to IgE antibody, rank of the sequence (serum of patient P20 (WDEIA)): Preferably

Substance: 1332 (SINVEN; REGION 1..6: note = epitope) [compound 1332]
- Epitope sequence binding to IgE antibody, rank of the sequence (serum of patient P22 (WDEIA)): Preferably

Substance: 1333 (INVEN; REGION 1..5: note = epitope) [compound 1333]
- Epitope sequence binding to IgE antibody, rank of the sequence (serum of patient P22 (WDEIA)): Key

Substance: 1336 (NVEN; REGION 1..4: note = epitope) [compound 1336]
- Epitope sequence binding to IgE antibody, rank of the sequence (serum of patient P26 (WDEIA)): Key

Substance: 1339 (INVEN; REGION 1..5: note = epitope) [compound 1339]
- Epitope sequence binding to IgE antibody, rank of the sequence (serum of patient P32 (WDEIA)): Preferably

Substance: 1340 (NVEN; REGION 1..4: note = epitope) [compound 1340]
- Epitope sequence binding to IgE antibody, rank of the sequence (serum of patient P32 (WDEIA)): Key

Substance: 1341 (NRRALR; REGION 1..6: note = epitope) [compound 1341]
- Epitope sequence binding to IgE antibody, rank of the sequence (serum of patient P32 (WDEIA)): Key

Substance: 1344 (INVEN; REGION 1..5: note = epitope) [compound 1344]
- Epitope sequence binding to IgE antibody, rank of the sequence (serum of patient P33 (WDEIA)): Preferably

Substance: 1345 (NVEN; REGION 1..4: note = epitope) [compound 1345]
- Epitope sequence binding to IgE antibody, rank of the sequence (serum of patient P33 (WDEIA)): Key

Substance: 1346 (NRRALR; REGION 1..6: note = epitope) [compound 1346]
- Epitope sequence binding to IgE antibody, rank of the sequence (serum of patient P33 (WDEIA)): Key

Substance: 1351 (INVEN; REGION 1..5: note = epitope) [compound 1351]
- Epitope sequence binding to IgE antibody, rank of the sequence (serum of patient P34 (WDEIA)): Preferably

Substance: 1353 (NVEN; REGION 1..4: note = epitope) [compound 1353]
- Epitope sequence binding to IgE antibody, rank of the sequence (serum of patient P35 (WDEIA)): Key

Substance: 1354 (VEDNRRALR; REGION 1..9: note = epitope) [compound 1354]
- Epitope sequence binding to IgE antibody, rank of the sequence (serum of patient P35 (WDEIA)): Key

Substance: 1356 (INVEN; REGION 1..5: note = epitope) [compound 1356]
- Epitope sequence binding to IgE antibody, rank of the sequence (serum of patient P36 (WDEIA)): Preferably

Substance: 1357 (NVEN; REGION 1..4: note = epitope) [compound 1357]
- Epitope sequence binding to IgE antibody, rank of the sequence (serum of patient P36 (WDEIA)): Key

Substance: 1358 (VEDNRRALR; REGION 1..9: note = epitope) [compound 1358]
- Epitope sequence binding to IgE antibody, rank of the sequence (serum of patient P36 (WDEIA)): Preferably

Substance: 1360 (INVEN; REGION 1..5: note = epitope) [compound 1360]
- Epitope sequence binding to IgE antibody, rank of the sequence [2]: Preferably

Substance: 1361 (NVEN; REGION 1..4: note = epitope) [compound 1361]
- Epitope sequence binding to IgE antibody, rank of the sequence [2]: Key

Substance: 1365 (SINVEN; REGION 1..6: note = epitope) [compound 1365]
- Epitope sequence binding to IgE antibody, rank of the sequence [1]: Preferably

Substance: 1366 (INVEN; REGION 1..5: note = epitope) [compound 1366]
- Epitope sequence binding to IgE antibody, rank of the sequence [1]: Key

Substance: 1368 (KPWQQQ; REGION 1..6: note = epitope) [compound 1368]
- Epitope sequence binding to IgE antibody, rank of the sequence (Key/Preferably/More preferably/Further preferably): Key

Substance: 1369 (QQPLPPQQ; REGION 1..8: note = epitope) [compound 1369]
- Epitope sequence binding to IgE antibody, rank of the sequence (Key/Preferably/More preferably/Further preferably): Preferably

Substance: 1370 (QPLPPQQ; REGION 1..7: note = epitope) [compound 1370]
- Epitope sequence binding to IgE antibody, rank of the sequence (Key/Preferably/More preferably/Further preferably): Key

Substance: 1371 (QPLPPQQQP; REGION 1..9: note = epitope) [compound 1371]
- Epitope sequence binding to IgE antibody, rank of the sequence (serum of patient P4 (WDEIA)): Preferably

Substance: 1372 (QPLPPQQQ; REGION 1..8: note = epitope) [compound 1372]
- Epitope sequence binding to IgE antibody, rank of the sequence (serum of patient P4 (WDEIA)): Key

Substance: 1374 (PWQQQPLP; REGION 1..8: note = epitope) [compound 1374]
- Epitope sequence binding to IgE antibody, rank of the sequence (serum of patient P7 (WDEIA)): Preferably

Substance: 1375 (PWQQQPL; REGION 1..7: note = epitope) [compound 1375]
- Epitope sequence binding to IgE antibody, rank of the sequence (serum of patient P7 (WDEIA)): Key

Substance: 1378 (QQPLPPQQQP; REGION 1..10: note = epitope) [compound 1378]
- Epitope sequence binding to IgE antibody, rank of the sequence (serum of patient P9 (WDEIA)): Preferably

Substance: 1380 (PWQQQPLPPQ; REGION 1..10: note = epitope) [compound 1380]
- Epitope sequence binding to IgE antibody, rank of the sequence (serum of patient P10 (WDEIA)): Key

Substance: 1381 (PWQQQPLPPQ; REGION 1..10: note = epitope) [compound 1381]
- Epitope sequence binding to IgE antibody, rank of the sequence (serum of patient P12 (WDEIA)): Preferably

Substance: 1382 (PWQQQPLPP; REGION 1..9: note = epitope) [compound 1382]
- Epitope sequence binding to IgE antibody, rank of the sequence (serum of patient P12 (WDEIA)): Key

Substance: 1383 (PPQQQ; REGION 1..5: note = epitope) [compound 1383]
- Epitope sequence binding to IgE antibody, rank of the sequence (serum of patient P12 (WDEIA)): Key

Substance: 1385 (KPWQQQPLP; REGION 1..9: note = epitope) [compound 1385]
- Epitope sequence binding to IgE antibody, rank of the sequence (serum of patient P14 (WDEIA)): Preferably

Substance: 1388 (QQPLPPQQQ; REGION 1..9: note = epitope) [compound 1388]
- Epitope sequence binding to IgE antibody, rank of the sequence (serum of patient P14 (WDEIA)): Preferably

Substance: 1390 (PWQQQ; REGION 1..5: note = epitope) [compound 1390]
- Epitope sequence binding to IgE antibody, rank of the sequence (serum of patient P15 (WDEIA)): Key

Substance: 1391 (QPLPPQQQ; REGION 1..8: note = epitope) [compound 1391]
- Epitope sequence binding to IgE antibody, rank of the sequence (serum of patient P15 (WDEIA)): Key
